How the values were obtained:
[1] = target: Multidrug resistance associated protein (Homo sapiens) (UniProt Q96QA9); assay: (§1) TP_TRANSPORTER: reporter gene activity in promoter constructs in HepG2 cells; type: functional, cell-based
[2] = target: ATP-binding cassette sub-family C member 2 (Homo sapiens, UniProt Q92887); assay: as §1; type: functional, cell-based
Chain of ATP-binding cassette sub-family C member 2 (Q92887 whole entry): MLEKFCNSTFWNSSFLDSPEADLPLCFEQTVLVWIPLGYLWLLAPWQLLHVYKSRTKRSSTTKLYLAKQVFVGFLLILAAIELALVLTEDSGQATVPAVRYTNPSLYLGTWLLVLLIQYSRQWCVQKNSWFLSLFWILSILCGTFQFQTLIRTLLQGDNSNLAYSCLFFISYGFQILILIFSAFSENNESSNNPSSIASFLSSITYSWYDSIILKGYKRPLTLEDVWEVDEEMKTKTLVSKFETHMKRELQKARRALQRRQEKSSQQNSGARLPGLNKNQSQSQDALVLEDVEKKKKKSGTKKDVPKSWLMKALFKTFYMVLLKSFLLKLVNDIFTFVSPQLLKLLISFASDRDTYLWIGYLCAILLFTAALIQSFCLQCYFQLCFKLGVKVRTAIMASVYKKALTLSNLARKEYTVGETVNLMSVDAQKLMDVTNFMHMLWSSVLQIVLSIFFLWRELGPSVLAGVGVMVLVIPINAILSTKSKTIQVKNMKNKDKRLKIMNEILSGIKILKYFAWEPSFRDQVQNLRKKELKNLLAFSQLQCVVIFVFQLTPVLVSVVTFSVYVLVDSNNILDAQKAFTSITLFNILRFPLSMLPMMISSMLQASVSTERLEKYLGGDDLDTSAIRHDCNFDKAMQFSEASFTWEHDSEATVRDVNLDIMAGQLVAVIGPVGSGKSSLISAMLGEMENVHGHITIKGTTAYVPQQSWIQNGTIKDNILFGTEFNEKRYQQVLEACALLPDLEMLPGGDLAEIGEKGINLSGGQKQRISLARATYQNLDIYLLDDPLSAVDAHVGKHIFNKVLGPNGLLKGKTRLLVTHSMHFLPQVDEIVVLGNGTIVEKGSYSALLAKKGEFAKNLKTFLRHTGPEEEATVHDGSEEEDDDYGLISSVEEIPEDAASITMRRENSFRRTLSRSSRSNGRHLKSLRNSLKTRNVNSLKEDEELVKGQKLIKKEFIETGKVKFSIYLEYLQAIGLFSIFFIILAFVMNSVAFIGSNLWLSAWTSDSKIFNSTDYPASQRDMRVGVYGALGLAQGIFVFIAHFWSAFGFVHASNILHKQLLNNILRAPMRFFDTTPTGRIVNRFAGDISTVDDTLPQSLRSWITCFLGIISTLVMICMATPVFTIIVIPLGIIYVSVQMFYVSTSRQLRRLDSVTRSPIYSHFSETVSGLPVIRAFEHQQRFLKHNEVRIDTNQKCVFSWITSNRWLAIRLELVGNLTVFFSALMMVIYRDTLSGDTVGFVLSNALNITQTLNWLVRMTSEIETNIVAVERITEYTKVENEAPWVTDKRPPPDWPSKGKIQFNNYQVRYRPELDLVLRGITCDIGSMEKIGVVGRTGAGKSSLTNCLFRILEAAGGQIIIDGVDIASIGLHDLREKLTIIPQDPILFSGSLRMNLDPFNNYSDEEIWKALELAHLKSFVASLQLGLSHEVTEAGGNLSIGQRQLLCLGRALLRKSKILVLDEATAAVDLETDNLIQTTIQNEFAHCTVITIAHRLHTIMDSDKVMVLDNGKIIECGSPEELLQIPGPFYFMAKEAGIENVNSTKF

Chain of Multidrug resistance associated protein (Homo sapiens) (Q96QA9 as listed by the source): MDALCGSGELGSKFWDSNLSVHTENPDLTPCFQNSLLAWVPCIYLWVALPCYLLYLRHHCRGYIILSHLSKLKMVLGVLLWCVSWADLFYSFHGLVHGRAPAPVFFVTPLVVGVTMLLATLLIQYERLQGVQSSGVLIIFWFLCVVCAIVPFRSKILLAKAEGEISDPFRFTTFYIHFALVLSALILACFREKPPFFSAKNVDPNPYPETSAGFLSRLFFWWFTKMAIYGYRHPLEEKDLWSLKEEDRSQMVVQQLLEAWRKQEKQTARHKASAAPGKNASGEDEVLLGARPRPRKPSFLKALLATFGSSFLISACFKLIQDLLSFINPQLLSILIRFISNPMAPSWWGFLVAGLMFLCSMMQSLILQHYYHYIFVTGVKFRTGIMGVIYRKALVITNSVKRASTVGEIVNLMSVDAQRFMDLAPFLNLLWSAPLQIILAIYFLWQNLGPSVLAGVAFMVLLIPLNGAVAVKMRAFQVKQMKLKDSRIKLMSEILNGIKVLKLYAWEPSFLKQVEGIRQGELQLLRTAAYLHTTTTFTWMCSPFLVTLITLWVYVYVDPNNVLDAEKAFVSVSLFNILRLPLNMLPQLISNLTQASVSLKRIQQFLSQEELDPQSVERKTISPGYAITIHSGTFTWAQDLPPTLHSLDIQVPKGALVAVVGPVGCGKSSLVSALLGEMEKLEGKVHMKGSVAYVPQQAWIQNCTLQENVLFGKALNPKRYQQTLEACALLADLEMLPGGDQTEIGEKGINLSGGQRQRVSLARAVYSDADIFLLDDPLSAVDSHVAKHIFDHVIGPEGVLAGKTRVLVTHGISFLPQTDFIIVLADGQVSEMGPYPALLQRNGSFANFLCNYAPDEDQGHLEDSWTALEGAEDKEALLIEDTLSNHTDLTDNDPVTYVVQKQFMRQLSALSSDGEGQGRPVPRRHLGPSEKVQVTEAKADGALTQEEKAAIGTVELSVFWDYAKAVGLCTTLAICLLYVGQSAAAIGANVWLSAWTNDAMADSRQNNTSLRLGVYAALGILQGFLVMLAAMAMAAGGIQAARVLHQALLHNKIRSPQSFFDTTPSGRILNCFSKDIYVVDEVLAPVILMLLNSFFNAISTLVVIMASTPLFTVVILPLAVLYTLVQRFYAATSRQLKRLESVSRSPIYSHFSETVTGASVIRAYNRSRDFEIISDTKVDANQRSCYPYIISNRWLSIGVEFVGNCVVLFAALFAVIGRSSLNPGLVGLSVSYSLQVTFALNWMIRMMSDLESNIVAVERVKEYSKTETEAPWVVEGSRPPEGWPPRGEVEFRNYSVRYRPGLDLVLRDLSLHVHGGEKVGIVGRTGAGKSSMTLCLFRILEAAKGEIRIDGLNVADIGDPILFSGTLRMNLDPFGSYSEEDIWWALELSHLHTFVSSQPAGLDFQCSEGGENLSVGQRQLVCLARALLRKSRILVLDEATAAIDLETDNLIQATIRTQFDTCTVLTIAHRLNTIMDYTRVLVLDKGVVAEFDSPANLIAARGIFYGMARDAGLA

SMILES	Activity [1]	Activity [2]
COC(=O)Nc1nc2cc(C(=O)c3cccs3)ccc2[nH]1	inducer [+]	–
COC(=O)Nc1nc2ccc(C(=O)c3cccs3)cc2[nH]1 [NOCODAZOLE]	–	inducer [+]
